The values that follow come from US11634390B2, “Agricultural chemicals” (GLOBACHEM NV, priority 2016, dated 2023).

Common to all, as to assay type: in vivo
The subject of one assay is Echinochloa crus-galli. Nature of the assay: Herbicidal screen, post-emergence spray of seedlings in pots: Barnyard grass. The conditions noted are these: Echinochloa crus-galli, post-emergence, 240 h, assessed 10 days after treatment, read-out: percentage increase in necrosis relative to the control. In short, it runs like this:
(§1)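 Seedlings were sprayed post-emergence two weeks after sowing, at 100, 50, 25 and 12.5 g/ha, with water controls and three replicates. Pots were held at 20 °C and scored 10 days after treatment on % plants showing growth. Necrosis increase over control was banded: d none, c 0.1-50, b 50-80, a 80-100.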

The test system of a further assay is maize. Nature of the assay: Herbicidal screen, post-emergence spray of seedlings in pots: crop species. The conditions noted are these: Zea mays, post-emergence, 240 h, assessed 10 days after treatment, read-out: percentage increase in necrosis relative to the control. In short, it runs like this:
as §1

The test system of another assay is Stellaria media. Nature of the assay: Herbicidal screen, post-emergence spray of seedlings in pots: Chickweed. The settings on record: Stellaria media, post-emergence, 240 h, assessed 10 days after treatment, read-out: percentage increase in necrosis relative to the control. The method in brief:
as §1

In a further assay the test system is Abutilon theophrasti. Nature of the assay: Herbicidal screen, post-emergence spray of seedlings in pots: velvetleaf. The conditions noted are these: Abutilon theophrasti, post-emergence, 240 h, assessed 10 days after treatment, read-out: percentage increase in necrosis relative to the control. The method in brief: as §1
In another assay the test system is Amaranthus retroflexus. Nature of the assay: Herbicidal screen, post-emergence spray of seedlings in pots: common amaranthus. The conditions noted are these: Amaranthus retroflexus, post-emergence, 240 h, assessed 10 days after treatment, read-out: percentage increase in necrosis relative to the control. The method in brief: as §1
For the next assay, the system named is four weed species. Nature of the assay: Herbicidal screen, summary across the four weed species. The settings on record: summary in words, 12.5-100 g/ha. The protocol: Compounds were screened at four concentrations (100, 50, 25 and 12.5 g/ha) against four weed species (Stellaria media—Chickweed; Abutilon theophrasti—velvetleaf; Amaranthus retroflexus—common amaranthus; Echinochloa crus-galli—Barnyard grass) and maize as a crop species. Seed were sown in 12.5 cm diameter pots (20 per pot for the weed species and 5 for maize). Seedlings were sprayed with 2 ml of compound two weeks after sowing, with 2 ml water used as the control. Each treatment was replicated three times. Plants were maintained at 20° C. and assessed 10 days after treatment. The assessment was based on the % plant in each pot showing growth. The data is presented in Table 1 in which d represents no detected effect at this concentration; c represents a percentage increase in necrosis relative to the control of 0.1-50; b represents a percentage increase in necrosis of 50-80; and a represents a percentage increase in necrosis of 80-100.

As to `Cn1c(C(F)(F)F)cc(=O)n(-c2cc(C(=O)NS(=O)(=O)C3(F)CC3)c(Cl)cc2F)c1=O` [Example 16, 2-Chloro-4-fluoro-N-((1-fluorocyclopropyl)sulfonyl)-5-(3-methyl-2,6-dioxo-4-(trifluoromethyl)-3,6-dihydropyrimidin-1(2H)-yl)benzamide], the pest or weed control at 12.5 g/ha in the assay with Echinochloa crus-galli (12.5 g/ha), with Stellaria media (12.5 g/ha), with Abutilon theophrasti (12.5 g/ha) and with Amaranthus retroflexus (12.5 g/ha) was 0.1 to 50% each time. Also, the pest or weed control at 25 g/ha with Echinochloa crus-galli (25 g/ha), in the assay on Stellaria media (25 g/ha), in the assay on Abutilon theophrasti (25 g/ha) and in the assay with Amaranthus retroflexus (25 g/ha) was 0.1 to 50% in each case. Besides, the pest or weed control at 50 g/ha with Echinochloa crus-galli (50 g/ha) fell in the range of 50 to 80%; with Stellaria media (50 g/ha), 0.1 to 50%; in the assay with Abutilon theophrasti (50 g/ha) it was 50 to 80%; in the assay on Amaranthus retroflexus (50 g/ha) it was 80 to 100%. The pest or weed control at 100 g/ha in the assay on Echinochloa crus-galli (100 g/ha) fell in the range of 50 to 80%; in the assay on Stellaria media (100 g/ha), 80 to 100%; in the assay on Abutilon theophrasti (100 g/ha) it was 80 to 100%; with Amaranthus retroflexus (100 g/ha), 80 to 100%. Moreover, in the assay on maize (12.5 g/ha), the plant injury at 12.5 g/ha was in the range of 0.1 to 50%. In addition, the plant injury at 25 g/ha with maize (25 g/ha) lay within 0.1 to 50%. Further, the plant injury at 50 g/ha in the assay on maize (50 g/ha) was in the range of 0.1 to 50%. The plant injury at 100 g/ha in the assay with maize (100 g/ha) was 0.1 to 50%. For the same compound, the “herbicidal activity against the weed species” value in the assay on four weed species is “good activity across several of the weed species”.
